IC50 data for 18 compounds are collected here from patent US11479563B2, “Biphenyl compound or salt thereof” (TAIHO PHARMACEUTICAL CO., LTD., priority 2017, dated 2022).

Where a name gives a salt, the structure may show the parent alone.

For assay [1], the system named is NCI-H146 cells (human small-cell lung cancer cell lines). Briefly: Cell-growth inhibition test: NCI-H146 cells. Format: cell-based. Conditions: Homo sapiens, NCI-H146, read-out: Cell-Growth Inhibition Test: NCI-H146 Cells IC50 (nM). The procedure:
Under the following conditions, an in vitro cell-growth inhibition test was performed with respect to HEL cells (human acute myelocytic leukemia cell lines), NCI-H1417 cells (human small-cell lung cancer cell lines), and NCI-H146 cells (human small-cell lung cancer cell lines).
The cells with the compound of the present invention or with dimethylsulfoxide alone were cultured at 37° C. in a 5% carbon-dioxide-containing incubator for 5 days (HEL cells) or 10 days (NCI-H1417 cells and NCI-H146 cells). After culture, the plate was allowed to stand at room temperature for 30 minutes, and 100 μL of the supernatant was removed from each well to leave 100 μL of the cell culture solution. To each well containing the remaining 100 μL of the cell culture solution, the same amount of CellTiter-Glo 2.0 Assay (Promega, Cat #: G9242) was added. The microplate was shaken with a plate mixer for 1 minute and then allowed to stand in a dark place for 10 minutes. Thereafter, the luminescence intensity of viable cells in each well was measured using a microplate reader (PerkinElmer, EnSpire). […] Cell growth rate (%)=T/C×100 T: The luminescence intensity in a well to which the compound of the present invention was added (count per second) C: The luminescence intensity in a well to which dimethylsulfoxide alone was added (count per second)

The subject of assay [2] is HEL cells (human acute myelocytic leukemia cell lines). Briefly: cells. Conditions: read-out: Cell-Growth Inhibition Test: HEL Cells IC50 (nM).
Assay [3] relates to NCI-H1417 cells (human small-cell lung cancer cell lines). Kind of assay: cells. As to conditions: NCI-H1417, read-out: Cell-Growth Inhibition Test: NCI-H1417 Cells IC50 (nM).

Consider `CC(C)(O)Cn1nnc2cc(-c3ccc(CN4C5CCC4C(N)C5)cc3-c3ccc(C#N)c(F)c3)c(F)c(Br)c21` [Example 294, 5′-(((1S,2S,4R)-rel-2-amino-7-azabicyclo[2.2.1]heptan-7-yl)methyl)-2′-(7-bromo-6-fluoro-1-(2-hydroxy-2-methylpropyl)-1H-benzo[d][1,2,3]triazol-5-yl)-3-fluoro-[1,1′-biphenyl]-4-carbonitrile-isomer-X dihydrochloride], for which the 50% inhibitory concentration (IC50) in assay [1] was found to be 4.05 nM; in assay [2], 0.04 nM; in assay [3], 0.055 nM.

Consider `CC(C)(O)Cn1nnc2cc(-c3ccc(C(=O)N4[C@@H]5CC[C@H]4C[C@@H](N)C5)cc3-c3ccc(C#N)c(F)c3)c(F)c(Cl)c21` [Example 211, 5′-((3-endo)-3-amino-8-azabicyclo[3.2.1]octane-8-carbonyl)-2′-(7-chloro-6-fluoro-1-(2-hydroxy-2-methylpropyl)-1H-benzo[d][1,2,3]triazol-5-yl)-3-fluoro-[1,1′-biphenyl]-4-carbonitrile], for which the IC50 in assay [1] stood at 1.4 nM; in assay [2], 1.41 nM; in assay [3], 0.79 nM.

Consider `CCC(O)(CC)Cn1nnc2cc(-c3ccc(CN4C5CCC4C(N)C5)cc3-c3ccc(C#N)c(F)c3)c(F)c(Cl)c21` [Example 288, 5′-(((1S,2S,4R)-rel-2-amino-7-azabicyclo[2.2.1]heptan-7-yl)methyl)-2′-(7-chloro-1-(2-ethyl-2-hydroxybutyl)-6-fluoro-1H-benzo[d][1,2,3]triazol-5-yl)-3-fluoro-[1,1′-biphenyl]-4-carbonitrile-isomer-X dihydrochloride], for which the IC50 in assay [1] was determined as 1.29 nM; in assay [2] it was 0.062 nM; in assay [3], 0.22 nM.

On to `CC(C)(O)Cn1ccc2cc(-c3ccc(C(=O)N4[C@@H]5CC[C@H]4C[C@@H](N)C5)cc3-c3ccc(C#N)c(F)c3)c(F)c(F)c21` [Example 183, 5′-((3-endo)-3-amino-8-azabicyclo[3.2.1]octane-8-carbonyl)-2′-(6,7-difluoro-1-(2-hydroxy-2-methylpropyl)-1H-indol-5-yl)-3-fluoro-[1,1′-biphenyl]-4-carbonitrile], for which the IC50 amounted to 0.25 nM in assay [1], 0.54 nM in assay [2] and 1.01 nM in assay [3].

On to `CC(C)(O)Cc1ccc(-c2ccc(C(=O)N3[C@@H]4CC[C@H]3C[C@@H](N)C4)cc2-c2ccc(C#N)c(F)c2)c(F)c1` [Example 41], for which the figures for the IC50 in assay [1], in assay [2] and in assay [3] were 9.76 nM, 4.98 nM and 6.12 nM, respectively.

With `CC(C)(O)Cn1nnc2cc(-c3ccc(C(=O)N4[C@@H]5CC[C@H]4C[C@@H](N)C5)cc3-c3ccc(C#N)c(F)c3)c(F)c(F)c21` [Example 161], the values for the IC50 in assay [1], in assay [2] and in assay [3] were 1.09 nM, 6.88 nM and 2.49 nM, respectively.

Regarding `CC(C)(O)Cn1nnc2cc(-c3ccc(C(=O)N4C5CCC4C(N)C5)cc3-c3ccc(C#N)c(F)c3)c(F)c(Cl)c21` [Example 209, 5′-((1S,2S,4R)-rel-2-amino-7-azabicyclo[2.2.1]heptane-7-carbonyl)-2′-(7-chloro-6-fluoro-1-(2-hydroxy-2-methylpropyl)-1H-benzo[d][1,2,3]triazol-5-yl)-3-fluoro-[1,1′-biphenyl]-4-carbonitrile-isomer-X], the values for the IC50 in assay [1], in assay [2] and in assay [3] were 0.22 nM, 0.24 nM and 0.18 nM, respectively.

Take `N#Cc1ccc(-c2cc(C(=O)N3[C@@H]4CC[C@H]3C[C@@H](N)C4)ccc2-c2cc3nnn(CC4(O)CCC4)c3c(C#N)c2F)cc1F` [Example 266, 5-(5-((3-endo)-3-amino-8-azabicyclo[3.2.1]octane-8-carbonyl)-4′-cyano-3′-fluoro-[1,1′-biphenyl]-2-yl)-6-fluoro-1-((1-hydroxycyclobutyl)methyl)-1H-benzo[d][1,2,3]triazole-7-carbonitrile]: the figures for the IC50 in assay [1], in assay [2] and in assay [3] were 17.5 nM, 4.63 nM and 1.85 nM, respectively.

Consider `CC(C)(O)Cc1ccc(-c2ccc(CN3CC[C@H](N)C3)cc2-c2ccc(C#N)c(F)c2)c(F)c1` [Example 291, (S)-5′-((3-aminopyrrolidin-1-yl)methyl)-2″,3-difluoro-4″-(2-hydroxy-2-methylpropyl)-[1,1′:2′,1″-terphenyl]-4-carbonitrile dihydrochloride], for which the values for the IC50 in assay [1], in assay [2] and in assay [3] were 10.4 nM, 1.21 nM and 4.65 nM, respectively.

Consider `CCC(O)(CC)Cn1nnc2cc(-c3ccc(C(=O)N4[C@@H]5CC[C@H]4C[C@@H](N)C5)cc3-c3ccc(C#N)c(F)c3)c(F)c(F)c21` [Example 216, 5′-((3-endo)-3-amino-8-azabicyclo[3.2.1]octane-8-carbonyl)-2′-(1-(2-ethyl-2-hydroxybutyl)-6,7-difluoro-1H-benzo[d][1,2,3]triazol-5-yl)-3-fluoro-[1,1′-biphenyl]-4-carbonitrile], for which the 50% inhibitory concentration (IC50) in assay [1] amounted to 5.02 nM; in assay [2], 4.19 nM; in assay [3] it was 4.4 nM.

Consider `N#Cc1ccc(-c2cc(C(=O)N3C4CCC3C(N)C4)ccc2-c2cc3nnn(CC4(O)CCC4)c3c(F)c2F)cc1F` [Example 254, 5′-((1S,2S,4R)-rel-2-amino-7-azabicyclo[2.2.1]heptane-7-carbonyl)-2′-(6,7-difluoro-1-((1-hydroxycyclobutyl)methyl)-1H-benzo[d][1,2,3]triazol-5-yl)-3-fluoro-[1,1′-biphenyl]-4-carbonitrile-isomer-X], for which the IC50 in assay [1] worked out at 0.36 nM; in assay [2], 0.2 nM; in assay [3] it was 0.18 nM.

As for `Cc1c(F)c(-c2ccc(C(=O)N3[C@@H]4CC[C@H]3C[C@@H](N)C4)cc2-c2ccc(C#N)c(F)c2)cc2nnn(CC(C)(C)O)c12` [Example 240, 5′-((3-endo)-3-amino-8-azabicyclo[3.2.1]octane-8-carbonyl)-3-fluoro-2′-(6-fluoro-1-(2-hydroxy-2-methylpropyl)-7-methyl-1H-benzo[d][1,2,3]triazol-5-yl)-[1,1′-biphenyl]-4-carbonitrile], the IC50 in assay [1] was 4.81 nM; in assay [2], 4.2 nM; in assay [3], 2.55 nM.

In the case of `COc1c(F)c(-c2ccc(C(=O)N3[C@@H]4CC[C@H]3C[C@@H](N)C4)cc2-c2ccc(C#N)c(F)c2)cc2cnn(CC(C)(C)O)c12` [Example 186, 5′-((3-endo)-3-amino-8-azabicyclo[3.2.1]octane-8-carbonyl)-3-fluoro-2′-(6-fluoro-1-(2-hydroxy-2-methylpropyl)-7-methoxy-1H-indazol-5-yl)-[1,1′-biphenyl]-4-carbonitrile], the 50% inhibitory concentration (IC50) in assay [1] was 3.21 nM; in assay [2] it was 5.3 nM; in assay [3], 5.95 nM.

On to `CC(C)(O)Cc1ccc(-c2ccc(CN3C4CCC3C(N)C4)cc2-c2ccc(C#N)c(F)c2)c(F)c1` [Example 290, 5′-(((1S,2S,4R)-rel-2-amino-7-azabicyclo[2.2.1]heptan-7-yl)methyl)-2″,3-difluoro-4″-(2-hydroxy-2-methylpropyl)-[1,1′:2′,1″-terphenyl]-4-carbonitrile-isomer-X dihydrochloride], for which the IC50 in assay [1] amounted to 2.12 nM; in assay [3], 1.06 nM.

For the compound `CC(C)(O)Cn1nnc2cc(-c3ccc(C(=O)N4C5CCC4C(N)C5)cc3-c3ccc(C#N)c(F)c3)c(F)c(Br)c21` [Example 273, 5′-((1S,2S,4R)-rel-2-amino-7-azabicyclo[2.2.1]heptane-7-carbonyl)-2′-(7-bromo-6-fluoro-1-(2-hydroxy-2-methylpropyl)-1H-benzo[d][1,2,3]triazol-5-yl)-3-fluoro-[1,1′-biphenyl]-4-carbonitrile-isomer-X], the IC50 in assay [1] was found to be 0.63 nM; in assay [2] it was 0.27 nM.

With `N#Cc1ccc(-c2cc(C(=O)N3C4CCC3C(N)C4)ccc2-c2cc3nnn(CC4(O)CCC4)c3c(Cl)c2F)cc1F` [Example 257, 5′-((1S,2S,4R)-rel-2-amino-7-azabicyclo[2.2.1]heptane-7-carbonyl)-2′-(7-chloro-6-fluoro-1-((1-hydroxycyclobutyl)methyl)-1H-benzo[d][1,2,3]triazol-5-yl)-3-fluoro-[1,1′-biphenyl]-4-carbonitrile-isomer-X], the IC50 was 0.39 nM in assay [1] and 0.13 nM in assay [2].

For the compound `CC(C)(O)Cn1ncc2cc(-c3ccc(CN4C5CCC4C(N)C5)cc3-c3ccc(C#N)c(F)c3)c(F)cc21` [Example 287, 5′-(((1S,2S,4R)-rel-2-amino-7-azabicyclo[2.2.1]heptan-7-yl)methyl)-3-fluoro-2′-(6-fluoro-1-(2-hydroxy-2-methylpropyl)-1H-indazol-5-yl)-[1,1′-biphenyl]-4-carbonitrile-isomer-X dihydrochloride], the IC50 was 0.2 nM in assay [1] and 0.1 nM in assay [3].

Consider `N#Cc1ccc(-c2cc(C(=O)N3[C@@H]4CC[C@H]3C[C@@H](N)C4)ccc2-c2cc3nnn(CC4(O)CCC4)c3c(C(F)F)c2F)cc1F` [Example 262, 5′-((3-endo)-3-amino-8-azabicyclo[3.2.1]octane-8-carbonyl)-2′-(7-(difluoromethyl)-6-fluoro-1-((1-hydroxycyclobutyl)methyl)-1H-benzo[d][1,2,3]triazol-5-yl)-3-fluoro-[1,1′-biphenyl]-4-carbonitrile], for which the IC50 in assay [1] is 3.1 nM; in assay [2], 0.93 nM.
